Test results: the NIST ThermoML archive (doi:10.1016/j.jct.2018.11.003)

Assay: cn = amount concentration of the nth substance listed, in mol/dm3
Settings: 298.15 K, 101.3 kPa, Liquid, Taylor dispersion method

Structure (SMILES)	binary diffusion coefficient (c1 = 0.0002) [m2/s]	binary diffusion coefficient (c1 = 0.000402) [m2/s]	binary diffusion coefficient (c1 = 0.000603) [m2/s]	binary diffusion coefficient (c1 = 0.000801) [m2/s]	binary diffusion coefficient (c1 = 0.002) [m2/s]	binary diffusion coefficient (c1 = 0.00499) [m2/s]	binary diffusion coefficient (c1 = 0.00997) [m2/s]	binary diffusion coefficient (c1 = 0.05) [m2/s]
O=C([O-])CC(O)(CC(=O)[O-])C(=O)[O-].O=C([O-])CC(O)(CC(=O)[O-])C(=O)[O-].[Ca+2].[Ca+2].[Ca+2] [calcium citrate] + O	6.18e-10	6.18e-10	6.16e-10	6.11e-10				
O=C(O)CC(O)(CC(=O)O)C(=O)O [citric acid] + O					8.48e-10	7.9e-10	7.6e-10	7.19e-10
